Experiment [1] concerns the target T1, Full-length human PRMT6 (Homo sapiens, UniProt Q96LA8).
T1 construct: Flag-PRMT6-His was eluted with 200 ug/ml FLAG peptide in the same buffer; made in house; host or cells: HEK 293F cells (BacMam virus, pFastBacMam)
Put plainly: PRMT6 biochemical assay (3H-SAM Flashplate, peptide substrate). The method, boiled down: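 Read-out is 3H-methylated histone H4 (36-50) peptide bound to streptavidin Flashplates after a cold-SAM stop. Baculovirus-expressed Flag-PRMT6-His met compound for 30 min at room temperature before SAM and peptide; Bicine pH 7.6 buffer. IC50 fitted to % inhibition normalized to SAH (min) and DMSO (max).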

Experiment [2] relates to mono-methyl arginine in RKO cells. The experiment can be described thus: RKO methylation assay, In Cell Western for mono-methyl arginine and DNA content. It counts as cell-based. Conditions: Homo sapiens.
Setting [3] is: In Cell Western, RKO cells, 72 hours, percent activation of mono-methyl arginine signal, read-out: EC30.

Structures can show the parent of a compound that is named as a salt. Where two headings read alike, the source gives them in different places.

T1 sequence (Q96LA8 with tags, fused parts or gaps): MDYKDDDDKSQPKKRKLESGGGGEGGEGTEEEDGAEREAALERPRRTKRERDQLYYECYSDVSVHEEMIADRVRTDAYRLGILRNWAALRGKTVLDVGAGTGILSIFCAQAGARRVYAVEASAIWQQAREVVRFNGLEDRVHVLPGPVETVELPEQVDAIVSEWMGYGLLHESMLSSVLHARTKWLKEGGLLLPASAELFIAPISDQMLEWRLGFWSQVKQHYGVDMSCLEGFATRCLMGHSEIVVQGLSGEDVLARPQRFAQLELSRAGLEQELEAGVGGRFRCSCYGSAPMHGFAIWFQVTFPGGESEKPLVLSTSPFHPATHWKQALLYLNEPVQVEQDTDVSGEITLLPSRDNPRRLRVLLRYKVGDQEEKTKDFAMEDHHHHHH

As a reminder, the IC50 is the concentration at which inhibition is half-maximal. Usually EC30 stands for the concentration needed for an effect of 30%. In turn, `CN(CCN)Cc1c[nH]nc1-c1ccc(Oc2ccccc2)c(F)c1` [Compound 224, N^1-((3-(3-fluoro-4-phenoxyphenyl)-1H-pyrazol-4-yl)methyl)-N^1-methylethane-1,2-diamine] gave an IC50 in experiment [1] below 100 nM. The same compound returned a 30% effect concentration (EC30) in experiment [2] (RKO, 72 h) below 3000 nM.
Compound `CN(CCN)Cc1c[nH]nc1-c1ccc(Oc2ccc(F)cc2)cc1` [Compound 225, N^1-((3-(4-(4-fluorophenoxy)phenyl)-1H-pyrazol-4-yl)methyl)-N^1-methylethane-1,2-diamine] yielded an IC50 in experiment [1] below 100 nM. Further, in experiment [2] (setting [3]), the EC30 was below 3000 nM.
For the compound `CN(CCN)Cc1c[nH]nc1-c1ccc(Oc2ccccc2)c(C(=O)N(C)C)c1` [Compound 226], in experiment [1], the IC50 is below 100 nM. Besides, the 30% effect concentration (EC30) in experiment [2] (setting [3]) is above 12000 nM.
With `CNC(=O)c1cc(-c2n[nH]cc2CN(C)CCN)ccc1Oc1ccccc1` [Compound 227], the IC50 in experiment [1] was below 100 nM. Besides, the EC30 in experiment [2] (setting [3]) was above 12000 nM.
In the case of `CNCCN(C)Cc1c[nH]nc1-c1ccc(OCCCOC)c(Cl)c1` [Compound 228], the IC50 in experiment [1] is below 100 nM. Further, the concentration for an effect of 30% (EC30) in experiment [2] (setting [3]) was below 3000 nM.
As to `CNCCN(C)Cc1cn(C)nc1-c1ccc(OC(C)C)cc1` [Compound 243, N1-((3-(4-isopropoxyphenyl)-1-methyl-1H-pyrazol-4-yl)methyl)-N1,N2-dimethylethane-1,2-diamine], the IC50 in experiment [1] was 101 to 1000 nM. Further, in experiment [2] (setting [3]), the concentration for an effect of 30% (EC30) is below 3000 nM.
The compound `CNCCN(C)Cc1cn(Cc2cccnc2)nc1-c1ccc(OC(C)C)cc1` [Compound 246] came in with an IC50 in experiment [1] of 101 to 1000 nM. The same compound displayed an EC30 in experiment [2] (RKO, 72 h) below 3000 nM.
Compound `CNCCN(C)Cc1cn(Cc2ccccn2)nc1-c1ccc(OC(C)C)cc1` [Compound 247] displayed a 50% inhibitory concentration (IC50) in experiment [1] of 101 to 1000 nM. The EC30 in experiment [2] (setting [3]) was 3010 to 12000 nM.
In experiment [1], `CNCCN(C)Cc1cn(CC(=O)OC)nc1-c1ccc(OC(C)C)cc1` [Compound 248] registered a 50% inhibitory concentration (IC50) of 101 to 1000 nM. Moreover, the EC30 in experiment [2] (setting [3]) is above 12000 nM.
The compound `CNCCN(C)Cc1cnn(CC(=O)OC)c1-c1ccc(OC(C)C)cc1` [Compound 249] registered an IC50 in experiment [1] of 101 to 1000 nM. The EC30 in experiment [2] (RKO, 72 h) was in the range of 3010 to 12000 nM.
The matching figures for `CNCCN(C)Cc1cn(CC(=O)O)nc1-c1ccc(OC(C)C)cc1` [Compound 250]: 3010 to 10000 nM and above 12000 nM.
As for `CNCCN(C)Cc1cn(CC(N)=O)nc1-c1ccc(OC(C)C)cc1` [Compound 251], the half-inhibitory concentration (IC50) in experiment [1] fell in the range of 1010 to 3000 nM. Moreover, the EC30 in experiment [2] (setting [3]) is above 12000 nM.
In experiment [1], `CCn1ncc(CN(C)CCNC)c1-c1ccc(OC(C)C)cc1` [Compound 252] registered an IC50 of 101 to 1000 nM. Also, the concentration for an effect of 30% (EC30) in experiment [2] (RKO, 72 h) was below 3000 nM.
`CNCCN(C)Cc1cn(CCOC)nc1-c1ccc(OC(C)C)cc1` [Compound 253, N1-((3-(4-isopropoxyphenyl)-1-(2-methoxyethyl)-1H-pyrazol-4-yl)methyl)-N1,N2-dimethylethane-1,2-diamine hydrochloride] registered a concentration for half-maximal inhibition (IC50) in experiment [1] of 101 to 1000 nM. For the same compound, the concentration for an effect of 30% (EC30) in experiment [2] (setting [3]) lay in the range of 3010 to 12000 nM.
The compound `CNCCN(C)Cc1cn(C2CCC2)nc1-c1ccc(OC(C)C)cc1` [Compound 254, N1-((1-cyclobutyl-3-(4-isopropoxyphenyl)-1H-pyrazol-4-yl)methyl)-N1,N2-dimethylethane-1,2-diamine hydrochloride] showed an IC50 in experiment [1] of 101 to 1000 nM. The EC30 in experiment [2] (setting [3]) was below 3000 nM.
Consider `CNCCN(C)Cc1cnn(C2CCCC2)c1-c1ccc(OC(C)C)cc1` [Compound 255], for which, in experiment [1], the half-maximal inhibitory concentration (IC50) was below 100 nM. Further, the EC30 in experiment [2] (RKO, 72 h) is below 3000 nM.
With `CNCCN(C)Cc1cn(C2CCCCC2)nc1-c1ccc(OC(C)C)cc1` [Compound 256], the IC50 in experiment [1] lay in the range of 101 to 1000 nM. In experiment [2] (setting [3]), the EC30 was above 12000 nM.
`C=C(C)C(=O)Nc1cccc(-c2[nH]ncc2CN(C)CCNC)c1` [Compound 257] yielded an IC50 in experiment [1] of 101 to 1000 nM. Further, in experiment [2] (setting [3]), the EC30 was above 12000 nM.
In the case of `C=CC(=O)Nc1cccc(-c2[nH]ncc2CN(C)CCNC)c1` [Compound 258], the concentration for half-maximal inhibition (IC50) in experiment [1] is 101 to 1000 nM. Further, the EC30 in experiment [2] (setting [3]) was above 12000 nM.

The record behind these values is patent US9346761B2, “Arginine methyltransferase inhibitors and uses thereof” (Epizyme, Inc., priority 2013, dated 2016).
